Laboratory results reported in publication PMC11375437, “Selective labelling of GBA2 in cells with fluorescent β-D-arabinofuranosyl cyclitol aziridines” (Chemical Science, 2024).

Target: T1, GBA2 (Homo sapiens, UniProt Q9HCG7)
T1 sequence (Q9HCG7 1-927): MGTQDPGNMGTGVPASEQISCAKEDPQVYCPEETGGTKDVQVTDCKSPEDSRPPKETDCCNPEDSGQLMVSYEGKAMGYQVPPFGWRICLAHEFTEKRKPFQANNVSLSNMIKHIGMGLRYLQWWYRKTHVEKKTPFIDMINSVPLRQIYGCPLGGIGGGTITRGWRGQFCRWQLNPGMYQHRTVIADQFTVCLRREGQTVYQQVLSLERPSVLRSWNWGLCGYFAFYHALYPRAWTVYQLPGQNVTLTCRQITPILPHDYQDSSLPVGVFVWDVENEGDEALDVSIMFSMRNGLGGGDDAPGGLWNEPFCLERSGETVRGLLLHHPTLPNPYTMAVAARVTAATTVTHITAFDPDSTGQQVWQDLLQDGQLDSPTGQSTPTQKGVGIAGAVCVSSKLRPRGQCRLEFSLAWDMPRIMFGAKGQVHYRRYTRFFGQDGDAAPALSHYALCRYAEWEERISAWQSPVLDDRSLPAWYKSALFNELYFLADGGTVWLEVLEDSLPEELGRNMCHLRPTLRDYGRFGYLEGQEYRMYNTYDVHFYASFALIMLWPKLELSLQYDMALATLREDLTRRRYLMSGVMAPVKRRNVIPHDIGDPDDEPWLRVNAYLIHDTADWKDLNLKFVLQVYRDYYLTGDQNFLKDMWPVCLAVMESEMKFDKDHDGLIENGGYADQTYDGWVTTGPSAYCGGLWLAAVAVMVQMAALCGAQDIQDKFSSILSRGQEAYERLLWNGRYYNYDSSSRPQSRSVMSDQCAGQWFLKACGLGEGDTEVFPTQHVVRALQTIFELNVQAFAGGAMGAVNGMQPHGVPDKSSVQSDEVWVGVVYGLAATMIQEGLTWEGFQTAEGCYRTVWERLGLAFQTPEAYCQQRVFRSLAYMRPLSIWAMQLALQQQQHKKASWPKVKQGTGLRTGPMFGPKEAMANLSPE
Assay: Confocal microscopy of ABP 4 staining after inhibitor pre-treatment in GBA2 overexpressing cells
Type: cell-based
Parameters: expressed in transfected cells; host or cells: HEK293T GBA1/GBA2 KO (CRISPR/Cas9), GBA2 overexpressed
Settings: 16 h pre-treatment (21 100 nM, 22 500 nM), then ABP 4 50 nM 2 h; GBA2 OE HEK293T cells
Method: To confirm the specific staining of GBA2, cells overexpressing GBA2 were pre-treated with either the specific GBA1 inhibitor 21 [32] or the GBA1/GBA2 inhibitor 22.[36]
Figure S11. Confocal fluorescence microscopy of A) HEK293T wild-type (WT), GBA2 overexpression (OE) or GBA1/2 knock out (KO) + GBA2 overexpression (OE) cells. Cells were pre-treated with either DMSO, GBA1/GBA2 inhibitor 22 or GBA1 selective inhibitor 21, and afterwards incubated with β-D-Araf aziridine BODIPY-red ABP 4 (50 nM) for 2 h. Subsequently, cells were fixed and stained for GBA1 (Green) with an anti-GBA1 antibody. B) RAW264.7 cells pre-treated with either DMSO or GBA1/GBA2 inhibitor 22 and incubated β-D-Araf aziridine ABP 4 for (50 nM) for 2 h. […]
Figure S12. […] Competitive ABPP allow for the determination of apparent IC50 values by quantification of the fluorescence intensity of ABP 7 as described in experimental section. […]
2.12 Reactivity of β-D-Araf aziridines towards GBA2 orthologue in other species β-D-Araf aziridine ABP 3-5 or ABP 7 was incubated with homogenates of zebrafish (Danio rerio) larvae or mice brain for 1 h at 37 °C. […] The zebrafish homogenates were passed through a desalting column (in the same way as described for the irreversibility evaluation above) to remove interference from biological pigments when scanning at λEX 473 nm and λEM ≥ 510 nm for BODIPY green fluorescence. […]

## CCCCCN1[C@@H]2[C@H](CO)[C@@H](O)[C@H](O)[C@@H](O)[C@@H]21 (stereo partly shown) [Inhibitor 22]
  Effect of pre-treatment on ABP 4 staining of GBA2: completely abrogated
